In patent publication US20140090094A1, “MODULATORS OF SLC22A7” (BAYER INTELLECTUAL PROPERTY GmbH, priority 2011, published 2014):

What was measured:
OAT2h mutant E441Q = molecular target: T1, OAT2h mutant E441Q (Homo sapiens, UniProt Q9Y694, E443Q); test: uptake by OAT2h mutant E441Q (eGFP chimera) in 293 cells; format: cell-based; conditions: 1 min, 37° C., 0.1 μmol/l radiolabeled solute
T1 construct: expressed in transfected cells; host or cells: 293 cells (HEK-293), doxycycline-inducible
T1 sequence (Q9Y694 1-546 isoform Q9Y694-2 E441Q): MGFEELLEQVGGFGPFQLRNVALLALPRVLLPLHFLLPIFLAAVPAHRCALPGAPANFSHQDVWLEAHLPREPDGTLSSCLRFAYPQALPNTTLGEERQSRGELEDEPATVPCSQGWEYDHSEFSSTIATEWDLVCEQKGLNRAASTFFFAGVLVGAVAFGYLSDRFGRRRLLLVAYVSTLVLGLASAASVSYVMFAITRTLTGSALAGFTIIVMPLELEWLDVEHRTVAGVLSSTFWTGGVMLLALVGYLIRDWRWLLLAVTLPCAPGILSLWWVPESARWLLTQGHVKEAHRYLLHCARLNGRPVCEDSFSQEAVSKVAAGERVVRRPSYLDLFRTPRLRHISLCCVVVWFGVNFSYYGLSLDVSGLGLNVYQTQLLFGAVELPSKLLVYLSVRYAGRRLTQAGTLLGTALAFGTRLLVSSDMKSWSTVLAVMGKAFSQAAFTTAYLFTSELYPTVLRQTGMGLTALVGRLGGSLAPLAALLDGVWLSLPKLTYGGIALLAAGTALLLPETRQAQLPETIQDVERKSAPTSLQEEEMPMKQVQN
Procedure: 293 cells transfected for expression of eGFP chimera of OAT2h wild-type or OAT2hE441Q in dishes were incubated (1 min, 37° C.) with 0.1 μmol/l radiolabeled solute in uptake buffer, washed, and lysed. Cell lysates were analyzed by liquid scintillation counting.
In transmembrane segment 10, the OAT2 orthologues from human, horse, pig, cattle, rabbit, rat, mouse, opossum, and chicken uniformly contain a glutamate (E441 in OAT2h) that is absent in the related carriers OAT1, OAT3, and SLC22A13. Since in other SLC22 family members transmembrane segment 10 is involved in substrate discrimination (Bacher et al. Biochim Biophys Acta 2009; 1788:2594-2602.), the negative charge of the glutamate side chain could specifically attract the ammonium residue of the glutamate substrate. To test this hypothesis, a mutant of OAT2h was created with glutamine at position 441 (E441 Q); eGFP was attached to the C-terminus to verify unaltered membrane trafficking (FIG. 23). […] It follows that E441 is essential for transport of glutamate. […]

OAT2r = molecular target: T2, OAT2r (Rattus norvegicus, UniProt Q5RLM2); test: time course of uptake into OAT2r-expressing 293 cells; format: cell-based; conditions: for clearance kin: 10 μmol/l unlabeled substrate, 37° C., OAT2r-expressing cells; for factor by which expression of OAT2r increased the clearance: kin on versus off
T2 construct: expressed in transfected cells
T2 sequence (Q5RLM2 1-535): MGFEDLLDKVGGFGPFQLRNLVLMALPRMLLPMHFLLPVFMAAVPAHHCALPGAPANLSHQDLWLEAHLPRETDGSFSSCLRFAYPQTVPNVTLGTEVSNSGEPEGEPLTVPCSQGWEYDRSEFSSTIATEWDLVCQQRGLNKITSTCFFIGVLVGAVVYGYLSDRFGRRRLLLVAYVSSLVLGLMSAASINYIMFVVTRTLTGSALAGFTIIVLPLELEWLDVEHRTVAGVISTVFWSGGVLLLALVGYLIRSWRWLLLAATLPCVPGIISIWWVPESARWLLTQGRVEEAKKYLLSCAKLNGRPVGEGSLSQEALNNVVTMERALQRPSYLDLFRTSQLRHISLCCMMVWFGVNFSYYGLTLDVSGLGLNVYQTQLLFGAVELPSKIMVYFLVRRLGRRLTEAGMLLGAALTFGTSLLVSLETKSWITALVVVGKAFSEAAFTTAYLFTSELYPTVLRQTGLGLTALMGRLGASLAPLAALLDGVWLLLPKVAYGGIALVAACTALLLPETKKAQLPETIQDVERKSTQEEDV

intracellular plateau (OAT2r; 10 μmol/l unlabeled orotic acid, after 60 min, LC-MS/MS) [nmol/mg protein]	intracellular concentration corresponding to plateau (OAT2r; calculated with an intracellular water space of 6.7 μl/mg protein) [µmol/L]	clearance kin (OAT2r; time course) [μl min-1 mg protein-1]	factor by which expression of OAT2r increased the clearance (OAT2r; time course)	kout (OAT2r; time course, unlabeled orotic acid, expression on) [min⁻¹]	Compound	uptake with mutant E441Q versus wild-type (in words) (OAT2h mutant E441Q)
					N[C@@H](CCC(=O)O)C(=O)O [glutamate]	completely abolished
5.8	870	50.1±6.4	86	0.09 ± 0.01	O=C(O)c1cc(=O)[nH]c(=O)[nH]1 [orotic acid]	much reduced, but still evident
		5.1±1.4	~50		C[n+]1cccc(C(=O)[O-])c1 [trigonelline]	
